Experimental data taken from US20080206356A1, “Pharmaceutical Compositions for the Treatment of Neurodegenerative Disorders” (UNIVERSIDAD DE BARCELONA, priority 2005, published 2008).

What was measured:
tau [1] = assay: tau phosphorylation in SH-SY5Y neuroblastoma cells (Western blot, tau-1 and AT-180 antibodies); type: cell-based, Human
Experimental: (§1) In FIG. 1 the effect of tungstate (W) on GSK3-β and tau phosphorylation on SH-SY5Y neuroblastoma cells is shown. The data correspond to the mean values and the error bars represent the standard deviation of three independent experiments. A) SH-SY5Y neuroblastoma cells were incubated for 10 minutes in the presence (+) or absence (−) of 1 mM sodium tungstate and their protein extracts were then probed by Western blot with an antibody that recognizes GSK3-β phosphorylated at Ser-9 and total GSK3-β. GSK3-β phosphorylation on Ser-9 causes its inactivation (D. A: Cross et al., Nature, vol. 378, pp. 785-789). […] B) SH-SY5Y cells were incubated with increasing concentrations of tungstate and the degree of tau phosphorylation was determined by Western blot with the tau-1 antibody, which recognizes tau when the serines 198, 199 or 202 are in unphosphorylated form. […] C) SH-SY5Y cells were incubated for 10 minutes in the presence (+) or absence (−) of 1 mM sodium tungstate (W) and the degree of tau phosphorylation was determined by Western blot with the AT180 antibody, which recognizes tau when threonine 231 is in phosphorylated form. […] The total amount of tau protein was determined using the 7.51 antibody.
(§2) The analysis of the degree of the phosphorylation of tau and GSK3 was performed by Western blot with the antibodies mentioned above. […]

GSK3-β [2] = target: T1, GSK3-β (Rattus norvegicus, UniProt P18266); assay: Ser-9 phosphorylation of GSK3-β in brain of STZ-diabetic rats intraperitoneally injected with tungstate; type: in vivo; conditions: tungstate 50 or 75 mg/kg intraperitoneally, FIG. 3B
T1 construct: Western blot analysis of Ser-9 phosphorylation of GSK3 in rat brain extracts; from tissue; host or cells: rat brain (Wistar rats: healthy or STZ-diabetic)
Experimental: (§3) In FIG. 3 the effect of tungstate (W) on the phosphorylation of tau from brains obtained from STZ-diabetic rats is shown. A) Western blot analysis of Ser-9 phosphorylation of GSK3 in rat brain extracts from control healthy rats intraperitoneally injected with saline (Ctrl) or tungstate (W) (50 mg/kg). […] B) as in A), STZ-diabetic rats intraperitoneally injected with 50 or 75 mg/kg of tungstate. C) Western blot analysis of the phosphorylation of tau at the site recognized by the tau-1 antibody in brain extracts from control healthy rats intraperitoneally injected with saline (Ctrl) or tungstate (W) (50 mg/kg). […] D) as in C), STZ-diabetic rats intraperitoneally injected with 50 or 75 mg/kg of tungstate. The data correspond to mean values and the error bars represent the standard deviation of three to five independent experiments.
(§4) The analysis of the degree of the phosphorylation of tau and GSK3 was performed by Western blot with the antibodies mentioned above. […] The protein concentration was determined using the BCA protein assay (Pierce, Rockford, Ill.). […]

tau [3] = assay: tau phosphorylation (tau-1 site) in brain of healthy rats intraperitoneally injected with tungstate; type: in vivo, rat; conditions: tungstate 50 mg/kg intraperitoneally vs saline, FIG. 3C
Experimental: as §3, §4

GSK3 [4] = target: T2, GSK3 (Rattus norvegicus, UniProt P18266); assay: phosphorylation of GSK3 in brains of healthy Wistar rats intracranially injected with tungstate; type: in vivo; conditions: intracranial 0.1 mM tungstate vs saline, FIG. 2A
T2 construct: Western blot analysis of Ser-9 phosphorylation of GSK3 in rat brain extracts; from tissue; host or cells: rat brain (Wistar rats: healthy or STZ-diabetic)
Experimental: (§5) In FIG. 2 the effect of tungstate (W) on the phosphorylation of tau in brains from healthy and insulin-resistant rats is shown. A) Western blot analysis of the phosphorylation of GSK3 (left) and tau (right) from brain extracts of healthy rats intracranially injected with saline (−) or 0.1 mM tungstate (+). Phosphorylation was measured with antibodies against Ser-9 phosphorylated GSK3-β (pS9), and tau phosphorylated at threonine 231 (AT180) or unphosphorylated at serines 198, 199 and 202 (tau-1). The total amount of GSK3 and tau was determined through the interaction with antibodies raised against GSK3 and against tau (7.51), respectively. […] Phosphorylation was measured using the antibody that reacts with Ser-9 phosphorylated GSK3-β (pS9-GSK3-β) or with the tau-1 and AT180 antibodies. The total amounts of GSK3 and tau were determined as in A. C) Insulin-resistant rats were injected intracranially with saline (−) or 0.1 mM tungstate (+), their brains were then isolated and homogenised, and Western blots of the brain proteins were performed with the tau-1, and AT180 antibodies. The total amount of tau protein was determined using the 7.51 antibody. […]
as §4

GSK3 [5] = target: T2, GSK3; assay: Ser-9 phosphorylation of GSK3 in brain of healthy rats intraperitoneally injected with tungstate; type: in vivo; conditions: tungstate 50 mg/kg intraperitoneally vs saline, FIG. 3A
Experimental: as §3, §4

GSK3-β [6] = target: T3, GSK3-β (Homo sapiens, UniProt P49841); assay: Ser-9 phosphorylation of GSK3-β in SH-SY5Y neuroblastoma cells (Western blot); type: cell-based; conditions: 1 mM sodium tungstate, 10 minutes, vs vehicle, FIG. 1A
T3 construct: endogenous in cells; host or cells: SH-SY5Y human neuroblastoma cells (ECACC 94030304)
Experimental: as §1, §2

tau [7] = assay: tau phosphorylation (tau-1 site) in brain of STZ-diabetic rats intraperitoneally injected with tungstate; type: in vivo, rat; conditions: tungstate 50 or 75 mg/kg intraperitoneally, FIG. 3D
Experimental: as §3, §4

tau [8] = assay: phosphorylation of tau in brains of insulin-resistant (high fat diet) rats injected intraventricularly with tungstate; type: in vivo, rat; conditions: 5 μl of 110 nM sodium tungstate intraventricularly (FIG. 2 legend: 0.1 mM), 24 hours, cortex, FIG. 2C, dihydrate
Experimental: In FIG. 2 the effect of tungstate (W) on the phosphorylation of tau in brains from healthy and insulin-resistant rats is shown. A) Western blot analysis of the phosphorylation of GSK3 (left) and tau (right) from brain extracts of healthy rats intracranially injected with saline (−) or 0.1 mM tungstate (+). Phosphorylation was measured with antibodies against Ser-9 phosphorylated GSK3-β (pS9), and tau phosphorylated at threonine 231 (AT180) or unphosphorylated at serines 198, 199 and 202 (tau-1). The total amount of GSK3 and tau was determined through the interaction with antibodies raised against GSK3 and against tau (7.51), respectively. B) Western blot analysis of the phosphorylation in brain of GSK3-β (left) and tau (right) in control (Ctrl) and insulin-resistant (IR) rats. Phosphorylation was measured using the antibody that reacts with Ser-9 phosphorylated GSK3-β (pS9-GSK3-β) or with the tau-1 and AT180 antibodies. The total amounts of GSK3 and tau were determined as in A. C) Insulin-resistant rats were injected intracranially with saline (−) or 0.1 mM tungstate (+), their brains were then isolated and homogenised, and Western blots of the brain proteins were performed with the tau-1, and AT180 antibodies. The total amount of tau protein was determined using the 7.51 antibody. A decrease in the interaction with AT180 and an increase for that of tau-1 were observed
The analysis of the degree of the phosphorylation of tau and GSK3 was performed by Western blot with the antibodies mentioned above. Cells were homogenized at 4° C. in 50 mM 4-(2-hydroxyethyl)piperazine-1-ethanesulfonic acid (HEPES), pH 7.4, 10 mM ethylenediaminetetraacetic acid (EDTA), 0.1% 4-(1,1,3,3-tetramethylbutyl)phenyl-polyethylene glycol (triton X-100), 20 mM NaF, 0.1 mM sodium orthovanadate, 1 mM phenylmethanesulphonylfluoride, 10 μg/ml Isovaleryl-Val-Val-4-amino-3-hydroxy-6-methylheptanoyl-Ala-4-amino-3-hydroxy-6-methylheptanoic Acid (Pepstatin A); and 10 μg/ml aprotinin. The cell lysates were centrifuged at 10,000 g for 30 min at 4° C. and then heated at 100° C. for 5 min in electrophoresis sample buffer. The protein concentration was determined using the BCA protein assay (Pierce, Rockford, Ill.). Proteins were fractionated by sodium dodecylsulfate-polyacrylamide gel electrophoresis (SDS-PAGE) on 10% gels and transferred to nitrocellulose membranes (Schleicher & Schuell Bioscience, Dassel, Germany). After blocking non-specific protein binding to the membranes with 0.05% polyethylene glycol sorbitan monolaurate (Tween 20) and 5% non-fat dry milk in phosphate buffered saline (PBS), the membranes were incubated overnight with the primary antibodies in blocking buffer at 4° C. […]

tau [9] = assay: phosphorylation of tau in brains of healthy Wistar rats intracranially injected with tungstate; type: in vivo, rat; conditions: intracranial 0.1 mM tungstate vs saline, FIG. 2A
Experimental: as §5, §4

[10] = cited from earlier work

T2 sequence (P18266 whole entry): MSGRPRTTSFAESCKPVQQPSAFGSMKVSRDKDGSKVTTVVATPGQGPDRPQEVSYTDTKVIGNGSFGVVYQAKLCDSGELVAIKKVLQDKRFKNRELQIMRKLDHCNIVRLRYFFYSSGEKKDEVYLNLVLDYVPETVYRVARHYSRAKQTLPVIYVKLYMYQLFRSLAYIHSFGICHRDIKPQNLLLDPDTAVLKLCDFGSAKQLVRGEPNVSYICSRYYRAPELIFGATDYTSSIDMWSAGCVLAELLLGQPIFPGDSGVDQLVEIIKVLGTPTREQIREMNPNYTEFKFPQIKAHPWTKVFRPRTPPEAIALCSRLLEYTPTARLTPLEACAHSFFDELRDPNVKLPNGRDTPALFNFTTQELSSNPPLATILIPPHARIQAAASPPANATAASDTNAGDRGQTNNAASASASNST
T3 sequence (P49841 whole entry): as the sequence (P18266 whole entry) above, with M240V, P390T, A392T, T400A, A402T counted along it
T1 sequence (P18266 whole entry): as the sequence (P18266 whole entry) above

For `O.O.[Na+].[Na+].[O]=[W](=[O])([O-])[O-]` [sodium tungstate, Sodium tungstate dihydrate], the “phosphorylation of the tau epitope recognized by AT-180 (threonine 231; ratio AT180 / 7.51)” value (tau [1]; 1 mM sodium tungstate, 10 minutes, FIG. 1C) was “decrease”, the “immunoreactivity with the tau-1 antibody (tau unphosphorylated at serines 198, 199 or 202; ratio tau1 / 7.51)” value (tau [1]; increasing concentrations of tungstate, FIG. 1B) was “significant increase” and the “Ser-9 phosphorylation of GSK3-β in brain (pS9-GSK3 / GSK3-β)” value (GSK3-β [2]) was “increased”. For the same molecule, the “tau phosphorylation at the site recognized by the tau-1 antibody in brain (tau-1 / 7.51)” value (tau [3]) was “no changes”, the “phosphorylation of GSK3 (Ser-9) in brain” value (GSK3 [4]) was “did not observe significant changes” and the “phosphorylation of GSK3 at Ser-9 in brain (pS9-GSK3 / GSK3-β)” value (GSK3 [5]) was “no changes”. For the same molecule, the “Ser-9 phosphorylation of GSK3-β (ratio GSK3-β-pS9 / total GSK3-β)” value (GSK3-β [6]) was “significantly increased”, the “tau phosphorylation at the site recognized by the tau-1 antibody in brain (tau-1 / 7.51)” value (tau [7]) was “decreased” and the “amount of tau protein recognized by the tau-1 antibody in brain” value (tau [8]; listed as Tungstate) was “increased”. The “phosphorylation of tau at the epitope recognized by the AT180 antibody in brain” value (tau [8]; listed as Tungstate) was “decreased”, the “amount of tau protein recognized by the tau-1 antibody in brain” value (tau [8]; listed as tungstate) was “increase” and the “phosphorylation of tau at the epitope recognized by the AT180 antibody in brain” value (tau [8]; listed as tungstate) was “decrease”. The “phosphorylation of tau (AT180, tau-1) in brain” value (tau [9]) was “did not observe significant changes” and the solubility in water [10] was “easily dissolved”.
